# ChEMBL document CHEMBL5727757, “Methods, compositions, and uses of novel Fyn kinase inhibitors” (2020)
# Target: Tyrosine-protein kinase Fyn (Homo sapiens, UniProt P06241)
# Experiment: ADP-Glo Kinase Assay: The assay procedure determines the IC50 of each potential FYN kinase inhibitor by measuring the enzyme catalyzed ATP-dependent phosphorylation of the FYN substrate peptide. The ADP-Glo™ Kinase Assay is specifically designed to quantify kinase activity by measuring the ADP produced in the reaction The reaction buffer comprises 40 mM Tris.HCl (pH 7.5), 20 mM MgCl2, 0.1 mg/ml BSA and 5 microM DTT. Individual compounds within the chemical library were dissolved in DMSO at known concentrations. Briefly, 2.5 microliters of reaction buffer containing 3 picograms of FYN kinase and serial dilutions of each potential FYN kinase inhibitor (9 3-fold dilutions of a 10 micromolar top sample) are placed into each well of a 384 well microtiter plate and incubated at room temperature for 30 minutes. An additional 2.5 microliters of reaction buffer containing 100 picograms of the FYN substrate and 12.5 picomoles of ATP are then added to each well and the reaction carried out for 90 minutes at room temperature.
# Tyrosine-protein kinase Fyn, sequence (P06241 whole entry): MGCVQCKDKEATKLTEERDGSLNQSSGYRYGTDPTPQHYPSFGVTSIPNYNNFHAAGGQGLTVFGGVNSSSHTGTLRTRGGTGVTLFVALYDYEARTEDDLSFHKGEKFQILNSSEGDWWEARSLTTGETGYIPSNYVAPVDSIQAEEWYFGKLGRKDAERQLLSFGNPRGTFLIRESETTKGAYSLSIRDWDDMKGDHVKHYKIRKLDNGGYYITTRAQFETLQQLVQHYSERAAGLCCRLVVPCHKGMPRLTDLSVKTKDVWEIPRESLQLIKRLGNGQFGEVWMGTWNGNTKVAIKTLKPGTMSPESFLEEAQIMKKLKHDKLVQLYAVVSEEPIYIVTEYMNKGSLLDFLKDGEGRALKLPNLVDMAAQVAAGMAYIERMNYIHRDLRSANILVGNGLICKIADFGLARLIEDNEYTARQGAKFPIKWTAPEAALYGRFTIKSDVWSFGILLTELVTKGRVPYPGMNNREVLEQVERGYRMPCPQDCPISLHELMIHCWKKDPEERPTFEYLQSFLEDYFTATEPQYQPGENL
row,Structure (SMILES),IC50
1,COc1ccc2c(c1)-c1nc(Nc3cc(C)c(OCCN(C)C)c(C)c3)ncc1CC2,8 nM
2,COc1ccc2c(c1)-c1nc(Nc3ccc(CCCN4CCCC4)c(OC)c3)ncc1CC2(C)C,8 nM
3,COc1cc(-c2nn([C@H]3CC[C@H](N4CCN(C)CC4)CC3)c3ncnc(N)c23)ccc1NC(=O)c1cc2ccccc2n1C,330 nM
4,COc1cc2ncnc3c2cc1OCCCCCN(C(=O)OCc1ccccc1)Cc1ccc2c(c1N3)OCO2,6.69 nM
